Values joined by “and” are separate entries in the source; they are usually repeats but may differ in a detail not shown here. Equal values may be shown once.
Conditions: for vapor or sublimation pressure: Closed cell (Static) method

FC(F)(F)/C=C/Cl [(E)-1-chloro-3,3,3-trifluoroprop-1-ene]
Conditions | mass density [kg/m3] | speed of sound
335.01 K, 7985.8 kPa, Liquid | 1199.99 | –
335.01 K, 11894 kPa, Liquid | 1213.83 | –
335.01 K, 14112 kPa, Liquid | 1221.09 | –
339.43 K, 353.83 kPa, Gas | – | 140.91 m/s
339.44 K, 145.11 kPa, Gas | – | 148.28 m/s
339.44 K, 267.82 kPa, Gas | – | 144.07 m/s
339.44 K, 267.83 kPa, Gas | – | 144.07 m/s
339.44 K, 267.89 kPa, Gas | – | 144.07 m/s
339.44 K, 353.63 kPa, Gas | – | 140.92 m/s
339.44 K, 353.76 kPa, Gas | – | 140.91 m/s
339.45 K, 144.98 kPa, Gas | – | 148.29 m/s
339.45 K, 145.24 kPa, Gas | – | 148.28 m/s
339.45 K, 267.8 kPa, Gas | – | 144.08 m/s
339.45 K, 267.82 kPa, Gas | – | 144.08 m/s
339.47 K, 199.9 kPa, Gas | – | 146.45 m/s
339.47 K, 268.41 kPa, Gas | – | 144.06 m/s
339.47 K, 321.82 kPa, Gas | – | 142.12 m/s
339.47 K, 447.53 kPa, Gas | – | 137.13 m/s
339.48 K, 199.88 kPa, Gas | – | 146.45 m/s
339.48 K, 268.39 kPa, Gas | – | 144.06 m/s
339.48 K, 268.43 kPa, Gas | – | 144.06 m/s
339.48 K, 322.03 kPa, Gas | – | 142.12 m/s
339.48 K, 374.34 kPa, Gas | – | 140.12 m/s
339.48 K, 447.52 kPa, Gas | – | 137.13 m/s
339.48 K, 447.57 kPa, Gas | – | 137.13 m/s
339.49 K, 85.51 kPa, Gas | – | 150.21 m/s
339.49 K, 85.52 kPa, Gas | – | 150.22 m/s
339.49 K, 322.01 kPa, Gas | – | 142.12 m/s
340 K, 3674.5 kPa, Liquid | 1169.48 | –
345.01 K, 6402.5 kPa, Liquid | 1168.7 | –
349.98 K, 366.9 kPa, Gas | 17.985 | –
350 K, 9119.8 kPa, Liquid | 1167.95 | –
355.01 K, 990.8 kPa, Liquid | 1111.28 | –
355.01 K, 2028.5 kPa, Liquid | 1117.99 | –
355.01 K, 3980.1 kPa, Liquid | 1129.59 | –
355.01 K, 6026.4 kPa, Liquid | 1140.59 | –
355.01 K, 8135 kPa, Liquid | 1150.94 | –
355.01 K, 9972.9 kPa, Liquid | 1159.29 | –
355.01 K, 11833 kPa, Liquid | 1167.22 | –
359.44 K, 307.1 kPa, Gas | – | 148.62 m/s
359.44 K, 400.17 kPa, Gas | – | 145.8 m/s
359.44 K, 400.23 kPa, Gas | – | 145.8 m/s
359.44 K, 500.35 kPa, Gas | – | 142.58 m/s
359.44 K, 596.92 kPa, Gas | – | 139.26 m/s
359.45 K, 307.02 kPa, Gas | – | 148.63 m/s
359.45 K, 307.4 kPa, Gas | – | 148.62 m/s
359.45 K, 400.08 kPa, Gas | – | 145.81 m/s
359.45 K, 500.35 kPa, Gas | – | 142.58 m/s and 142.58 m/s
359.45 K, 596.94 kPa, Gas | – | 139.26 m/s
359.45 K, 596.95 kPa, Gas | – | 139.26 m/s
359.98 K, 499.3 kPa, Gas | 24.386 | –
360 K, 387.4 kPa, Gas | 18.379 | –
360 K, 916.6 kPa, Fluid (supercritical or subcritical phases) | 1094.63 | –
360 K, 3249 kPa, Liquid | 1110.57 | –
364 K, 2629 kPa, Fluid (supercritical or subcritical phases) | 1094.08 | –
365.01 K, 5510.3 kPa, Liquid | 1109.87 | –
368 K, 1297.9 kPa, Fluid (supercritical or subcritical phases) | 1070.52 | –
368 K, 4345.4 kPa, Fluid (supercritical or subcritical phases) | 1093.56 | –
370 K, 523.6 kPa, Gas | 24.719 | –
370.01 K, 524 kPa, Gas | 24.736 | –
370.01 K, 7766.7 kPa, Liquid | 1109.2 | –
370.02 K, 407.6 kPa, Gas | 18.73 | –
372 K, 2880.6 kPa, Fluid (supercritical or subcritical phases) | 1070 | –
375.01 K, 2017.2 kPa, Liquid | 1052.12 | –
375.01 K, 4033.7 kPa, Liquid | 1069.29 | –
375.01 K, 5918 kPa, Liquid | 1083.16 | –
375.01 K, 7957.7 kPa, Liquid | 1096.46 | –
375.01 K, 10021 kPa, Liquid | 1108.53 | –
376 K, 1522.5 kPa, Fluid (supercritical or subcritical phases) | 1043.77 | –
376 K, 4464.2 kPa, Fluid (supercritical or subcritical phases) | 1069.49 | –
379.77 K, 81.05 kPa, Gas | – | 159.47 m/s and 159.47 m/s
379.77 K, 81.06 kPa, Gas | – | 159.48 m/s
379.77 K, 201.41 kPa, Gas | – | 156.72 m/s

Liquid
Conditions | vapor or sublimation pressure [kPa]
340.01 K | 470.7
350.02 K | 608.7
360.02 K | 775
370.03 K | 973.2
